≈ marks a conversion by molar mass, not a printed value. Non-standard residues stand in square brackets, D forms with d. Residues, ends and D or L forms follow the SMILES beside them. Ala(cPr) = N[C@@H](CC1CC1)C(=O)O; Tle = CC(C)(C)[C@H](N)C(=O)O; dDab = NCC[C@@H](N)C(=O)O; Orn = NCCC[C@H](N)C(=O)O; Dab = NCC[C@H](N)C(=O)O
Legend:
[1] = test system: P. aeruginosa
[2] = test system: HELA cells (Acc57); assay: Cytotoxicity assay, MTT reduction (LC 50, GI 50); type: cell-based
How it was run: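 HeLa cells seeded at 7.0×10^3 cells/well, grown 24 h, then exposed to peptides at 12.5, 25 and 50 μM in triplicate for 48 h at 37 °C; MTT (0.5 mg/ml, 2 h), A595 read. Percent growth was taken relative to time-zero plates; LC50 and GI50 were interpolated by linear trend at −50% and 50% growth.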

[3] = test system: human red blood cells (hRBC); assay: Hemolysis; type: cell-based; conditions: 100
[4] = test system: Pseudomonas aeruginosa P8191900; type: cell-based; conditions: P8191900
How it was run: (§1)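 Peptides were serially diluted two-fold in MH broth containing 0.02% BSA and combined 1:1 with bacterial suspension adjusted to roughly 10^6 CFU/ml, following a modified NCCLS microdilution protocol.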

[5] = test system: Pseudomonas aeruginosa P1021903; type: cell-based; conditions: P1021903
How it was run: as §1

[6] = test system: Pseudomonas aeruginosa IMP 1 Livermore 3140; type: cell-based; conditions: IMP 1 Livermore 3140
How it was run: as §1

[7] = test system: Pseudomonas aeruginosa P1021913; type: cell-based; conditions: P1021913
How it was run: as §1

[8] = test system: P. aeruginosa ATCC 27853; type: cell-based, Pseudomonas aeruginosa; conditions: ATCC 27853
How it was run: as §1

Row | SMILES | Average MIC [1] [µg/mL] | Cytotoxicity GI50 Hela cells [2] [µM] | Hemolysis at 100 μg/ml [3] [%] | MIC P. aeruginosa P8191900 [4] [µg/mL] | MIC P. aeruginosa P1021903 [5] [µg/mL] | MIC P. aeruginosa IMP1 Livermore 3140 [6] [µg/mL] | MIC P. aeruginosa P1021913 [7] [µg/mL] | MIC P. aeruginosa ATCC 27853 [8] [µg/mL]
1 | CC[C@H](C)[C@@H]1NC(=O)[C@H](Cc2c[nH]c3ccccc23)NC(=O)[C@H]([C@@H](C)O)NC(=O)[C@@H]2CCCN2C(=O)[C@H]2CCCN2C(=O)[C@H](CCN)NC(=O)[C@H](C(C)(C)C)NC(=O)[C@H](CCN)NC(=O)[C@H](CCN)NC(=O)[C@H](Cc2c[nH]c3ccccc23)NC(=O)[C@H](CCN)NC(=O)[C@H](CCN)NC(=O)[C@H](CCCCN)NC(=O)[C@H](CCN)NC1=O [Example 36] (cyclo(TWI[Dab]K[Dab][Dab]W[Dab][Dab][Tle][Dab][dP]P)) | 0.22 | 50 | 0.1 | 0.18 (≈ 0.111 µM) | 0.18 (≈ 0.111 µM) | 0.43 (≈ 0.265 µM) | 0.24 (≈ 0.148 µM) | 0.06 (≈ 0.037 µM)
2 | CC[C@H](C)[C@@H]1NC(=O)[C@H](Cc2c[nH]c3ccccc23)NC(=O)[C@H]([C@@H](C)O)NC(=O)[C@@H]2CCCN2C(=O)[C@H]2CCCN2C(=O)[C@H](CCN)NC(=O)[C@H](CC2CC2)NC(=O)[C@H](CCN)NC(=O)[C@H](CCN)NC(=O)[C@H](Cc2c[nH]c3ccccc23)NC(=O)[C@H](CCN)NC(=O)[C@H](CCN)NC(=O)[C@H](CCCCN)NC(=O)[C@H](CCN)NC1=O [Example 37] (cyclo(TWI[Dab]K[Dab][Dab]W[Dab][Dab][Ala(cPr)][Dab][dP]P)) | 0.42 | 50 | 0.5 | 0.18 (≈ 0.111 µM) | 0.31 (≈ 0.191 µM) | 1.17 (≈ 0.722 µM) | 0.37 (≈ 0.228 µM) | 0.06 (≈ 0.037 µM)
3 | CC[C@H](C)[C@@H]1NC(=O)[C@H](Cc2c[nH]c3ccccc23)NC(=O)[C@H]([C@@H](C)O)NC(=O)[C@@H]2CCCN2C(=O)[C@H]2CCCN2C(=O)[C@H](CCN)NC(=O)[C@H](CC(N)=O)NC(=O)[C@H](CCN)NC(=O)[C@H](CCN)NC(=O)[C@H](Cc2c[nH]c3ccccc23)NC(=O)[C@H](CCN)NC(=O)[C@H](CCN)NC(=O)[C@H](CCCCN)NC(=O)[C@H](CCN)NC1=O [Example 38] (cyclo(TWI[Dab]K[Dab][Dab]W[Dab][Dab]N[Dab][dP]P)) | 0.35 | 50 | 0.5 | 0.17 (≈ 0.105 µM) | 0.17 (≈ 0.105 µM) | 1.06 (≈ 0.653 µM) | 0.27 (≈ 0.166 µM) | 0.09 (≈ 0.0554 µM)
4 | CC[C@H](C)[C@@H]1NC(=O)[C@H](Cc2c[nH]c3ccccc23)NC(=O)[C@H]([C@@H](C)O)NC(=O)[C@@H]2CCCN2C(=O)[C@H]2CCCN2C(=O)[C@H](CCN)NC(=O)[C@H](C)NC(=O)[C@H](CCN)NC(=O)[C@H](CCN)NC(=O)[C@H](Cc2c[nH]c3ccccc23)NC(=O)[C@H](CCC(N)=O)NC(=O)[C@H](CCN)NC(=O)[C@H](CCCCN)NC(=O)[C@H](CCN)NC1=O [Example 39] (cyclo(TWI[Dab]K[Dab]QW[Dab][Dab]A[Dab][dP]P)) | 0.34 | 50 | 0.4 | 0.21 (≈ 0.131 µM) | 0.31 (≈ 0.193 µM) | 0.75 (≈ 0.466 µM) | 0.31 (≈ 0.193 µM) | 0.13 (≈ 0.0808 µM)
5 | CC[C@H](C)[C@@H]1NC(=O)[C@H](Cc2c[nH]c3ccccc23)NC(=O)[C@H]([C@@H](C)O)NC(=O)[C@@H]2CCCN2C(=O)[C@H]2CCCN2C(=O)[C@H](CCN)NC(=O)[C@H](C)NC(=O)[C@H](CCN)NC(=O)[C@H](CCN)NC(=O)[C@H](Cc2c[nH]c3ccccc23)NC(=O)[C@H](CCN)NC(=O)[C@@H](CCN)NC(=O)[C@H](CCCCN)NC(=O)[C@H](CCN)NC1=O [Example 41] (cyclo(TWI[Dab]K[dDab][Dab]W[Dab][Dab]A[Dab][dP]P)) | 0.12 | 50 | 0.2 | 0.05 (≈ 0.0316 µM) | 0.03 (≈ 0.019 µM) | 0.25 (≈ 0.158 µM) | 0.25 (≈ 0.158 µM) | 0.02 (≈ 0.0127 µM)
6 | CC[C@H](C)[C@@H]1NC(=O)[C@H](Cc2ccc(O)cc2)NC(=O)[C@H](CC(=O)O)NC(=O)[C@@H]2CCCN2C(=O)[C@H]2CCCN2C(=O)[C@H](CCN)NC(=O)[C@H](C)NC(=O)[C@H](CCN)NC(=O)[C@H](CCN)NC(=O)[C@H](Cc2c[nH]c3ccccc23)NC(=O)[C@H](CCN)NC(=O)[C@@H](CCN)NC(=O)[C@H](CCCCN)NC(=O)[C@H](CCN)NC1=O [Example 42] (cyclo(DYI[Dab]K[dDab][Dab]W[Dab][Dab]A[Dab][dP]P)) | 0.29 | 50 | 0.2 | 0.06 (≈ 0.0382 µM) | 0.125 (≈ 0.0795 µM) | 0.50 (≈ 0.318 µM) | 0.50 (≈ 0.318 µM) | 0.25 (≈ 0.159 µM)
7 | CC[C@H](C)[C@@H]1NC(=O)[C@H](Cc2ccc(O)cc2)NC(=O)[C@H](CC(=O)O)NC(=O)[C@@H]2CCCN2C(=O)[C@H]2CCCN2C(=O)[C@H](CCN)NC(=O)[C@H](C)NC(=O)[C@H](CCN)NC(=O)[C@H](CCN)NC(=O)[C@H](Cc2c[nH]c3ccccc23)NC(=O)[C@H](CCN)NC(=O)[C@@H](CCN)NC(=O)[C@H](CCCN)NC(=O)[C@H](CCN)NC1=O [Example 43] (cyclo(DYI[Dab][Orn][dDab][Dab]W[Dab][Dab]A[Dab][dP]P)) | 0.95 | 50 | 0.5 | 0.50 (≈ 0.321 µM) | 0.125 (≈ 0.0802 µM) | 2.00 (≈ 1.28 µM) | 2.00 (≈ 1.28 µM) | 0.13 (≈ 0.0834 µM)
8 | CC[C@H](C)[C@@H]1NC(=O)[C@H](Cc2c[nH]c3ccccc23)NC(=O)[C@H](CCC(=O)O)NC(=O)[C@@H]2CCCN2C(=O)[C@H]2CCCN2C(=O)[C@H](CCC(N)=O)NC(=O)[C@H](C)NC(=O)[C@H](CCN)NC(=O)[C@H](CCN)NC(=O)[C@H](Cc2c[nH]c3ccccc23)NC(=O)[C@H](CCN)NC(=O)[C@@H](CCN)NC(=O)[C@H](CCCCN)NC(=O)[C@H](CCN)NC1=O [Example 45] (cyclo(EWI[Dab]K[dDab][Dab]W[Dab][Dab]AQ[dP]P)) | 0.65 | 50 | 0.2 | 0.50 (≈ 0.305 µM) | 0.50 (≈ 0.305 µM) | 1.00 (≈ 0.611 µM) | 1.00 (≈ 0.611 µM) | 0.25 (≈ 0.153 µM)
9 | CC[C@H](C)[C@@H]1NC(=O)[C@H](Cc2c[nH]c3ccccc23)NC(=O)[C@H](CCC(=O)O)NC(=O)[C@@H]2CCCN2C(=O)[C@H]2CCCN2C(=O)[C@H](CCN)NC(=O)[C@H](C)NC(=O)[C@H](CCN)NC(=O)[C@H](CCN)NC(=O)[C@H](Cc2c[nH]c3ccccc23)NC(=O)[C@H](CCN)NC(=O)[C@@H](CCN)NC(=O)[C@H](CCCN)NC(=O)[C@H](CCN)NC1=O [Example 47] (cyclo(EWI[Dab][Orn][dDab][Dab]W[Dab][Dab]A[Dab][dP]P)) | 0.32 | 50 | 0.2 | 0.13 (≈ 0.0815 µM) | 0.13 (≈ 0.0815 µM) | 0.75 (≈ 0.47 µM) | 0.50 (≈ 0.314 µM) | 0.09 (≈ 0.0564 µM)
10 | CC[C@H](C)[C@@H]1NC(=O)[C@H](Cc2c[nH]c3ccccc23)NC(=O)[C@H]([C@@H](C)O)NC(=O)[C@@H]2CCCN2C(=O)[C@H]2CCCN2C(=O)[C@H](CCN)NC(=O)[C@H](C)NC(=O)[C@H](CCN)NC(=O)[C@H](CCN)NC(=O)[C@H](Cc2c[nH]c3ccccc23)NC(=O)[C@H](CCN)NC(=O)[C@@H](CCN)NC(=O)[C@H](CCCN)NC(=O)[C@H](CCN)NC1=O [Example 48] (cyclo(TWI[Dab][Orn][dDab][Dab]W[Dab][Dab]A[Dab][dP]P)) | 0.08 | 50 | 0.2 | 0.03 (≈ 0.0191 µM) | 0.02 (≈ 0.0128 µM) | 0.19 (≈ 0.121 µM) | 0.13 (≈ 0.083 µM) | 0.02 (≈ 0.0128 µM)
11 | CC[C@H](C)[C@@H]1NC(=O)[C@H](Cc2c[nH]c3ccccc23)NC(=O)[C@H]([C@@H](C)O)NC(=O)[C@@H]2CCCN2C(=O)[C@H]2CCCN2C(=O)[C@H](CO)NC(=O)[C@H](C)NC(=O)[C@H](CCN)NC(=O)[C@H](CCN)NC(=O)[C@H](Cc2c[nH]c3ccccc23)NC(=O)[C@H](CCN)NC(=O)[C@@H](CCN)NC(=O)[C@H](CCCN)NC(=O)[C@H](CCN)NC1=O [Example 49] (cyclo(TWI[Dab][Orn][dDab][Dab]W[Dab][Dab]AS[dP]P)) | 0.17 | 50 | 0.1 | 0.06 (≈ 0.0386 µM) | 0.03 (≈ 0.0193 µM) | 0.50 (≈ 0.322 µM) | 0.25 (≈ 0.161 µM) | 0.03 (≈ 0.0193 µM)

Reference: patent US9521846B2, “Template-fixed peptidomimetics with antimicrobial activity” (priority 2006, dated 2016)
